Laboratory results as given in article PMC6274786 (International Journal of Molecular Sciences, 2018).
Read-outs that look alike come from different tables or passages of the source.

What was measured:
MES-induced seizure = test: Maximal electroshock (MES)-induced seizure; format: in vivo, Wistar rats; conditions: 10 mg/kg i.p.; for MES-Induced Seizure (protection class): 50 Hz, 120 mA, 1 s
From the text: As previously described, the seizures were induced in rats with a 50 Hz alternating current of 120 mA intensity. The current was applied through ear electrodes for 1 s. Protection against the spread of MES-induced seizure was defined as the abolition of the tonic hind limb extension (THLE) component of the seizure. For the first screening of protective effects of test compounds 1–16 in the MES-induced seizure model, the animals were divided into eighteen groups of seven rats (n = 7) as follows; group (1) control group injected with vehicle (SAL), group (2) positive control group in which rats were injected with PHT at a dose of 10 mg/kg (this being the minimal dose of PHT that protected animals against the spread of MES-induced seizures without mortality), and groups (3)–(18) animals in the experimental groups were administered H3R antagonists 1–16 at a dose of 10 mg/kg. In another MES experiment in three separate groups of six rats (n = 6), H3R antagonist 4 with the most promising protection in MES model was administered at doses of 2.5, 5, or 15 mg/kg, i.p. 30–45 min before the MES challenge.

PTZ-induced seizure = test: Pentylenetetrazole (PTZ)-induced seizure; format: in vivo, Wistar rats; conditions: 10 mg/kg i.p.; for PTZ-Induced Seizure (protection class): PTZ 60 mg/kg; for protective effect in PTZ-induced seizure (in words): observed over 30 min, vs saline-treated group
Experimental: (§1) In this study and according to previously used protocols, two chemical agents have been used to induce seizures, namely pentylenetetrazole (PTZ, 60 mg/kg, i.p.) and strychnine (STR, 3.5 mg/kg, i.p.). PTZ 60 mg/kg or STR 3.5 mg/kg were administered i.p. to all groups of seven rats (n = 7), that is, animals pretreated with vehicle or test compounds 1–16. Vehicle, VPA (300 mg/kg, i.p.), [26, 47, 48, 49] or test compounds 1–16 (10 mg/kg, i.p.) were systemically administered 30–45 min before PTZ (60 mg/kg, i.p.) or STR (3.5 mg/kg, i.p.) injection, and animals were directly observed for any signs of convulsion for a duration of 30 min. The observed scores as well as percent protection against generalized tonic-clonic seizure (GTCS) were graded and scaled according to the Racine scale (stage 0, no change in behavior; stage 1, stereotype mouthing, eye blinking, and/or mild facial clonus; stage 2, head nodding and/or severe facial clonus; stage 3, myoclonic jerk in forelimbs; stage 4, clonic convulsions in the forelimbs with rearing; stage 5, generalized colonic convulsions associated with loss of balance) to evaluate the protection provided by the respective test compound against seizures. The animals were divided into eighteen groups of seven rats (n = 7) and treated as follows.
(§2) (1) Control group injected with vehicle + PTZ (SAL group), (2) positive control group in which rats were injected with VPA (300 mg/kg) + PTZ (VPA group), and animals in the test groups (3)–(18) were systemically administered with test compounds 1–16 (10 mg/kg), respectively. An additional PTZ experiment was conducted using three different groups of seven rats (n = 7), the H3R ligand with the most promising protection in PTZ model was administered at doses of 2.5, 5, or 15 mg/kg, i.p. 30–45 min before the PTZ challenge. […] The same experimental procedure was followed in the STR-induced seizure model applying the reference drug VPA, which was used at a dose of 300 mg/kg, i.p. (Figure 3, Table 2).

STR-induced seizure = test: Strychnine (STR)-induced seizure; format: in vivo, Wistar rats; conditions: 10 mg/kg i.p.; for STR-Induced Seizure (protection class): STR 3.5 mg/kg
Experimental: as §1, §2

human histamine H3R = biological target: T1, human histamine H3R (Homo sapiens, UniProt Q9Y5N1); test: [3H]Nα-methylhistamine radioligand displacement assay, HEK-293 cell membranes; format: binding
T1 construct: expressed in transfected cells
T1 sequence (Q9Y5N1 whole entry): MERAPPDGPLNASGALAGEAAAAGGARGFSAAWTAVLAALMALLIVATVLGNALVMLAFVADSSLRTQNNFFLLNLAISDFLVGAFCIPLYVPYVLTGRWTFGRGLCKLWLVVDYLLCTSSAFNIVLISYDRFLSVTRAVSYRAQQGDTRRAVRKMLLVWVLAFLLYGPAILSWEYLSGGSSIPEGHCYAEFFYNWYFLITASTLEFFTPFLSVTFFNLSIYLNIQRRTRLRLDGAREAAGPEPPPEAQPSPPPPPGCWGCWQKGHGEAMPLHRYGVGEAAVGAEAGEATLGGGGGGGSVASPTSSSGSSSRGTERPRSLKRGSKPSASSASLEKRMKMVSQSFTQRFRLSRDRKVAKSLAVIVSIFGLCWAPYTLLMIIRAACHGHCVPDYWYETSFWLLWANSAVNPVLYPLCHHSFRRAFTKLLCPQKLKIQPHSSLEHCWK
Experimental: As described previously, the affinity for the human histamine H3R was tested utilizing radioligand displacement assays with [^3H]N^α-methylhistamine at membrane preparations from human embryonic kidney (HEK)-293 cells, stably expressing the receptor. […] The analysis of data was conducted by the software GraphPad Prism 7 (San Diego, CA, USA), using the “one-site competition” equation. Ki values were calculated from the 50 percent of inhibitory concentration (IC50) values according to the Cheng-Prusoff equation [44]

human H1 receptor = biological target: T2, human H1 receptor (Homo sapiens, UniProt P35367); test: Radioligand binding, membranes from CHO-K1 cells
T2 construct: purchased PerkinElmer; host or cells: CHO-K1 cells, stably transfected (membranes)
T2 sequence (P35367 whole entry): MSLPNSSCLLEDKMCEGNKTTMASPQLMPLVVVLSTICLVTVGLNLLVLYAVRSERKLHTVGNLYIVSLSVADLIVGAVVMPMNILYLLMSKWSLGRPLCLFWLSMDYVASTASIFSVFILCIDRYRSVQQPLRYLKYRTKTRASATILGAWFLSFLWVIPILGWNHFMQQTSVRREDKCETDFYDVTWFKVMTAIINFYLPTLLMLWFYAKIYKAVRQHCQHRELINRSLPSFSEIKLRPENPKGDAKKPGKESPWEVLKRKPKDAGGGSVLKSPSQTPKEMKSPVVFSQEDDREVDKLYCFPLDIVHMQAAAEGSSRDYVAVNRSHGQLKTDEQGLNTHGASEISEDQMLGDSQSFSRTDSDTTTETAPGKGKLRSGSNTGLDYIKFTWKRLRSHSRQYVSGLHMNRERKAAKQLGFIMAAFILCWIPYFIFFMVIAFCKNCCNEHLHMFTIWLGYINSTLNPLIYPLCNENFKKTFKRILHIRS
Experimental: Radioligand binding was performed as previously described using membranes from CHO-K1 cells stably transfected with the human H1 receptor (PerkinElmer., Waltham, MA, USA). Data were fitted to a one-site curve-fitting equation with Prism 6 (GraphPad Software, city, state, country) and Ki values were estimated from the Cheng–Prusoff equation [44].

[1] = mean with 95% confidence interval, read-out: In Vitro Affinity Ki (hH3R) in nM [CI]

| SMILES | MES-Induced Seizure (protection class) (MES-induced seizure) | PTZ-Induced Seizure (protection class) (PTZ-induced seizure) | STR-Induced Seizure (protection class) (STR-induced seizure) | Ki (human histamine H3R) [nM] | also measured |
| --- | --- | --- | --- | --- | --- |
| O=C(O)C(=O)O.c1ccc2cc(OCCCCCN3CCCCCC3)ccc2c1 [Ligand 2, 1-(5-(naphthalen-2-yloxy)pentyl)azepane hydrogen oxalate] | − | − | − |  |  |
| O=C(O)C(=O)O.O=C(c1ccccc1)c1cccc(OCCCCCCN2CCCCC2)c1 [Ligand 8, phenyl(3-(6-(piperidin-1-yl)hexyloxy)phenyl)methanone hydrogen oxalate] | + (moderate protective effect (tonic hind limb extension (THLE) duration in the range of 2–5 s, seizure score in the range of 2–4)) | − | − | 76.1 |  |
| CC1CCCN(CCCCCCOc2ccc(F)cc2)C1.O=C(O)C(=O)O (stereo not drawn) [Ligand 12, 1-(6-(4-fluorophenoxy)hexyl)-3-methylpiperidine hydrogen oxalate] | − | + (moderate protective effect (tonic hind limb extension (THLE) duration in the range of 2–5 s, seizure score in the range of 2–4)) | − |  | Ki (human histamine H3R; [1]): 83.6 nM |
| O=C(O)C(=O)O.O=C(c1ccccc1)c1ccc(OCCCCCCN2CCCCC2)cc1 [Ligand 5, phenyl(4-(6-(piperidin-1-yl)hexyloxy)phenyl)methanone hydrogen oxalate] | ++ (high protective effect (THLE duration <1, seizure score 0)) | − | − | 41.1 |  |
| C[C@@H](N)Cc1c[nH]cn1 [RAMH, (R)-α-methylhistamine, reference compound] |  |  |  |  | MES-Induced Seizure Average THLE (MES-induced seizure): 7.92 ± 0.60 s; protective effect in MES-induced seizure (in words) (MES-induced seizure; vs saline-treated group): did not affect MES-induced seizures; PTZ-Induced Seizure % Protection against GTCS (PTZ-induced seizure): 14.29%; PTZ-Induced Seizure Average Seizure Score (PTZ-induced seizure): 4.29 ± 0.25; protective effect in PTZ-induced seizure (in words) (PTZ-induced seizure): did not affect seizure score; STR-Induced Seizure % Protection against GTCS (STR-induced seizure): 28.57%; STR-Induced Seizure Average Seizure Score (STR-induced seizure): 4.71 ± 0.16 |
| Fc1ccc(OCCCCCCN2CCCCC2)cc1.O=C(O)C(=O)O [Ligand 11, 1-(6-(4-fluorophenoxy)hexyl)piperidine hydrogen oxalate] | − | ++ (high protective effect (THLE duration <1, seizure score 0)) | − |  | Ki (human histamine H3R; [1]): 115 nM; protective effect in PTZ-induced seizure (in words) (PTZ-induced seizure): full protective activities; protective effect in STR-induced seizure (in words) (STR-induced seizure; 30 min observation, vs saline-treated group): failed to exhibit appreciable protection |
| CC1CCCN(CCCCCOc2ccc3ccccc3c2)C1.O=C(O)C(=O)O (stereo not drawn) [Ligand 1, 3-methyl-1-(5-(naphthalen-2-yloxy)pentyl)piperidine hydrogen oxalate] | − | − | − |  |  |
| CC1CCCN(CCCCCCOc2cccc(C(=O)c3ccccc3)c2)C1.O=C(O)C(=O)O (stereo not drawn) [Ligand 9, (3-(6-(3-methylpiperidin-1-yl)hexyloxy)phenyl)(phenyl)methanone hydrogen oxalate] | − | − | − | 110 | Ki (human H1 receptor): 0.915 to 1.34 µM |
